Assay results published in patent US6372785B1, “Synthesis of 1,8-dichloro-anthracene analogues and pharmaceutical compositions based thereon” (Keith Chan, President GloboAsia, LLC, priority 2000, dated 2002).

Row | melting point | Structure (SMILES)
1 | 183 to 185 °C | O=C(Oc1c2c(Cl)cccc2cc2cccc(Cl)c12)c1ccccc1 [Compound 3L, 1,8-Dichloro-9-benzoyloxyanthracene]
2 | 220 to 222 °C | Cc1ccc(C(=O)Oc2c3c(Cl)cccc3cc3cccc(Cl)c23)cc1 [Compound 3o, 1,8-Dichloro-9-(p-toluoyloxy)anthracene]
3 | 155 to 157 °C | O=C(CCCBr)Oc1c2c(Cl)cccc2cc2cccc(Cl)c12 [Compound 3I, 1,8-Dichloro-9-(4-bromobutyroxy)anthracene]
4 | 150 to 152 °C | CCC(=O)Oc1c2c(Cl)cccc2cc2cccc(Cl)c12 [Compound 3d, 1,8-Dichloro-9-propionoxyanthracene]
5 | 184 to 186 °C | CC(C)C(=O)Oc1c2c(Cl)cccc2cc2cccc(Cl)c12 [Compound 3e, 1,8-Dichloro-9-isobutyroxyanthracene]
6 | 152 to 154 °C | CCCC(=O)Oc1c2c(Cl)cccc2cc2cccc(Cl)c12 [Compound 3h, 1,8-Dichloro-9-butyroxyanthracene]
7 | 168 to 170 °C | Cc1ccccc1C(=O)Oc1c2c(Cl)cccc2cc2cccc(Cl)c12 [Compound 3m, 1,8-Dichloro-9-(o-toluoyloxy)anthracene]
8 | 136 to 138 °C | CCCCCC(=O)Oc1c2c(Cl)cccc2cc2cccc(Cl)c12 [Compound 3k, 1,8-Dichloro-9-hexanoyloxyanthracene]
9 | 196 to 198 °C | Cc1cccc(C(=O)Oc2c3c(Cl)cccc3cc3cccc(Cl)c23)c1 [Compound 3n, 1,8-Dichloro-9-(m-toluoyloxy)anthracene]

Row | Structure (SMILES) | melting point
10 | CC(=O)Oc1c2c(Cl)cccc2cc2cccc(Cl)c12 [Compound 3a, 1,8-Dichloro-9-acetoxyanthracene] | 130 to 131 °C
11 | O=C(CCl)Oc1c2c(Cl)cccc2cc2cccc(Cl)c12 [Compound 3c, 1,8-Dichloro-9-chloroacetoxyanthracene] | 178 to 180 °C
12 | O=C(CBr)Oc1c2c(Cl)cccc2cc2cccc(Cl)c12 [Compound 3b, 1,8-Dichloro-9-bromoacetoxyanthracene] | 192 to 193 °C
